Data set [1] can be described thus: refractive index (Na D-line) (dimensionless). Particulars: 293.15 K; 101.33 kPa; Liquid; Standard Abbe refractometry.
The conditions of data set [2]: Liquid; for mass density: 293.15 K, 101.33 kPa, Vibrating tube method; for vapor or sublimation pressure: Ebulliometric method (Recirculating still).

Numbers after ± are expanded uncertainties.

What is called refractive index is the speed of light in vacuum divided by its phase velocity in the sample. One may read the mass density as mass per unit of volume. For orientation: vapor or sublimation pressure means the equilibrium pressure above the liquid or solid.

On to `CC(C)CO` [2-methyl-1-propanol], for which the refractive index in data set [1] came out at 1.3954 ± 0.0007. For the same compound, the mass density in data set [2] is listed as 802.7 ± 0.8 kg/m3. Further, the “vapor or sublimation pressure” value in data set [2] (357.6 K) amounted to 40 ± 0.2 kPa.

As to `CCCCCCCCCCCC` [dodecane], the refractive index in data set [1] is listed as 1.4218 ± 0.0007. Besides, the mass density in data set [2] turned out to be 750 ± 0.8 kg/m3. Also, in data set [2] (453.7 K), the “vapor or sublimation pressure” value stood at 40 ± 0.2 kPa.

In the case of `CCCCO` [butan-1-ol], in data set [1], the refractive index was 1.3992 ± 0.0007. The mass density in data set [2] was determined as 810.4 ± 0.8 kg/m3. Also, the “vapor or sublimation pressure” value in data set [2] (367.1 K) is 40 ± 0.2 kPa.

Regarding `CCCO` [propan-1-ol], the refractive index in data set [1] is listed as 1.3851 ± 0.0007. Further, the mass density in data set [2] was determined as 804.9 ± 0.8 kg/m3. Further, in data set [2] (346.5 K), the “vapor or sublimation pressure” value worked out at 40 ± 0.2 kPa.
